Data on one compound can be found in patent US6139538A, “Iontophoretic agent delivery to the female reproductive tract” (Iotek, Inc., priority 1997, dated 2000).

For the data set the following is noted: 20 minutes.
The mark [1] stands for this setting: Experiment #1, active (A1, A2, A3): 4% lidocaine solution, 1 mA.
Where [2] appears, read: Experiment #1, passive (P1, P2, P3): 4% lidocaine solution, no current.
Setting [3] is: Experiment #2, active (A1, A2, A3): 4% lidocaine solution, 1 mA.

Where “and” joins values, the source holds several entries; their conditions need not be identical. Identical values can stand only once. Like-named read-outs stand apart in the source and are kept apart here.

Method: Two identical experiments compared iontophoretic delivery of an anesthetic into the uterine wall with passive delivery of the anesthetic into the uterine wall. Each experiment was conducted using segments of porcine uteri. In the first experiment, there were three trials of iontophoretic delivery using fresh segments of porcine uteri from the first pig and three trials of passive delivery using fresh segments of porcine uteri from the first pig. This procedure was repeated in the second experiment using segments of porcine uteri from the second pig. The weight of the pig for the first experiment was 110 lbs., and the weight of the pig for the second experiment was 120 lbs.
When running each trial for both the first and second experiments, the segment of porcine uterus was placed between two half diffusion cells, a donor cell and a receptor cell. […] The receptor cell was filled with isotonic saline. […] The tissue samples were analyzed using high pressure liquid chromatography (HPLC).
For the active delivery trials in each experiment, a donor or delivery electrode (anode) of Ag was placed in the donor cell and a receptor or return electrode (cathode) of AgCl was placed in the receptor cell. A 1 mA current was then conducted between the donor and receptor electrodes for 20 minutes. For the passive delivery trials in each experiment, the segments of porcine uteri were left in the diffusion cell opening between the donor solution and the receptor solution for 20 minutes.

As to `CCN(CC)CC(=O)Nc1c(C)cccc1C` [lidocaine], under setting [1], the “Total μg in tissue” value was 604.6 µg and 600.2 µg and 494.6 µg; the μg/mL of lidocaine is 120.9 µg/mL and 120.0 µg/mL and 98.9 µg/mL. Under setting [2], the “Total μg in tissue” value was 131.8 µg and 95.5 µg and 172.1 µg; the μg/mL of lidocaine was 26.4 µg/mL and 19.1 µg/mL and 34.4 µg/mL. In addition, under setting [3], the “Total μg/g in tissue” value was 702.3 µg/g and 808.2 µg/g and 781.1 µg/g; the μg/mL of lidocaine is 140.5 µg/mL and 161.6 µg/mL and 156.2 µg/mL.
